# Where “and” joins values, the source holds several entries; their conditions need not be identical. Equal values may be shown once.
# Assays:
# [1] = target: T1, SLK/STK2 (Homo sapiens, UniProt Q9H2G2); assay: HotSpot kinase assay; format: biochemical; conditions: read-out: % Enzyme Activity (relative to DMSO controls)
# T1 construct: purchased Reaction Biology Corporation
# [2] = target: T2, MLCK/MYLK (Homo sapiens, UniProt Q15746); assay: HotSpot kinase assay; format: biochemical; conditions: read-out: % Enzyme Activity (relative to DMSO controls)
# T2 construct: purchased Reaction Biology Corporation
# [3] = target: T3, Aurora B (Homo sapiens, UniProt Q96GD4); assay: HotSpot kinase assay; format: biochemical; conditions: read-out: % Enzyme Activity (relative to DMSO controls)
# T3 construct: purchased Reaction Biology Corporation
# T3 sequence (Q96GD4 whole entry): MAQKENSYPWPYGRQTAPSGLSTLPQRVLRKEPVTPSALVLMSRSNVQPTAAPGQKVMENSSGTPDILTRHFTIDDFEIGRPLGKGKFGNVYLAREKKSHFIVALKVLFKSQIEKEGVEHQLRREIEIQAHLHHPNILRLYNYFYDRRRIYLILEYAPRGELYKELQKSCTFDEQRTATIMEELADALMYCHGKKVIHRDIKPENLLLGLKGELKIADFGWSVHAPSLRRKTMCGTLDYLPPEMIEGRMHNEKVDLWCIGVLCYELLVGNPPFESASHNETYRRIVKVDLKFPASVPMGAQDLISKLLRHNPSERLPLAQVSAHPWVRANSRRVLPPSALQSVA
# [4] = target: T4, PKN1/PRK1 (Homo sapiens, UniProt Q16512); assay: HotSpot kinase assay; format: biochemical; conditions: read-out: % Enzyme Activity (relative to DMSO controls)
# T4 construct: purchased Reaction Biology Corporation
# [5] = target: T5, JNK3 (Homo sapiens, UniProt P53779); assay: HotSpot kinase assay; format: biochemical; conditions: read-out: % Enzyme Activity (relative to DMSO controls)
# T5 construct: purchased Reaction Biology Corporation
# [6] = system: HSV-2(G); assay: synchronized infection (entry) assay, HaCat cells; format: cell-based; conditions: 10 μM
# Protocol: To quantify viral entry, cells were synchronously infected by allowing virus to bind to cells at 4°C for 4 h, washed, and then transferred to 37 °C. CIMSS or control DMSO was added at the time of temperature shift. At indicated times post-temperature shift, the cells were treated with a low pH buffer to inactivate virus that had not penetrated, washed, overlaid with medium containing methyl cellulose and viral plaques were counted at 48 h. Entry was also assessed by immunoblotting nuclear extracts for VP16. […] Nuclear extracts were prepared after 1 h and analyzed by western blot with antibodies targeting VP16, histone H1 and golgin-97[5]. The non-nuclear fraction was also probed for golgin-97 as a positive control. […] After 1 or 4 h of incubation, the cells were fixed. Plasma membranes were stained using Image -IT^TM LIVE Plasma Membrane kit and nuclei were stained with DAPI (Thermo Fisher Scientific, Cat 134406). The percentage of GFP + nuclei was determined by counting ~200 cells over 3–4 fields. Images were obtained with Leica SP8 microscope (objective 63 × 1.4); xz images were captured with optical slice 0.6 µm, 25–30 slices per image.
# [7] = target: T6, SGK3/SGKL (Homo sapiens, UniProt Q96BR1); assay: HotSpot kinase assay; format: biochemical; conditions: read-out: % Enzyme Activity (relative to DMSO controls)
# T6 construct: purchased Reaction Biology Corporation
# [8] = target: T7, AKT1 (Homo sapiens, UniProt P31749); assay: biochemical
# T7 construct: purchased Reaction Biology Corporation
# T7 sequence (P31749 whole entry): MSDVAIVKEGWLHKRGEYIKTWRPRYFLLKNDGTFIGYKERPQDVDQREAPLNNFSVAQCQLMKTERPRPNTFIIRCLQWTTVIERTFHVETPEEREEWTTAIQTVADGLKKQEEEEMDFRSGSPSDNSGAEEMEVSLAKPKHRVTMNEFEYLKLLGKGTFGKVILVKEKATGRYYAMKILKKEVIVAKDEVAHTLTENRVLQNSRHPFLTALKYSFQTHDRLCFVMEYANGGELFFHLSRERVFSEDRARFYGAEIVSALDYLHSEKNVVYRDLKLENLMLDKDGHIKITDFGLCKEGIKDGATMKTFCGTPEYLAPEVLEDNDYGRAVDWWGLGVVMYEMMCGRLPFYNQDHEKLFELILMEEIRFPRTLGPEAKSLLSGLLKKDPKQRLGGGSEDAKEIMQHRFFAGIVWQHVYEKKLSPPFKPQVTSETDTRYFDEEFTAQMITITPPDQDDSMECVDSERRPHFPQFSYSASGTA
# [9] = target: T8, CAMKK2 (Homo sapiens, UniProt Q96RR4); assay: HotSpot kinase assay; format: biochemical; conditions: read-out: % Enzyme Activity (relative to DMSO controls)
# T8 construct: purchased Reaction Biology Corporation
# T8 sequence (Q96RR4 whole entry): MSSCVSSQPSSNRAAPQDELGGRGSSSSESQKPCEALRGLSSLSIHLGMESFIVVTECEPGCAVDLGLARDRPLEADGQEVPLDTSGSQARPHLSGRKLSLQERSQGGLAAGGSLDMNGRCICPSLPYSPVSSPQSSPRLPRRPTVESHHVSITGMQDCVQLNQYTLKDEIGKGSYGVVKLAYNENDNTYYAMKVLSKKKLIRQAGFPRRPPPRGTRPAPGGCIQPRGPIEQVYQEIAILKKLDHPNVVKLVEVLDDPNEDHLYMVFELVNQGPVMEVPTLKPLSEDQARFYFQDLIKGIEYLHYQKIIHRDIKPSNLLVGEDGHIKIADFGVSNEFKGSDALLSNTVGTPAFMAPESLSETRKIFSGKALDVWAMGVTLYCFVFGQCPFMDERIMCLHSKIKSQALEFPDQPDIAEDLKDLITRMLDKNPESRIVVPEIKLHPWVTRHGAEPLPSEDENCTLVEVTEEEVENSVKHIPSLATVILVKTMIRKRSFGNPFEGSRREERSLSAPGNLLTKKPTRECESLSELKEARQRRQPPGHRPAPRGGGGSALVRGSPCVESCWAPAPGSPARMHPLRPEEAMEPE
# [10] = target: T9, DYRK3 (Homo sapiens, UniProt O43781); assay: HotSpot kinase assay; format: biochemical; conditions: read-out: % Enzyme Activity (relative to DMSO controls)
# T9 construct: purchased Reaction Biology Corporation
# [11] = target: T10, CK1epsilon (Homo sapiens, UniProt P49674); assay: HotSpot kinase assay; format: biochemical; conditions: read-out: % Enzyme Activity (relative to DMSO controls)
# T10 construct: purchased Reaction Biology Corporation
# [12] = target: T11, PAK3 (Homo sapiens, UniProt O75914); assay: HotSpot kinase assay; format: biochemical; conditions: read-out: % Enzyme Activity (relative to DMSO controls)
# T11 construct: purchased Reaction Biology Corporation
# [13] = target: T12, GRK2 (Homo sapiens, UniProt P25098); assay: biochemical; conditions: read-out: % Enzyme Activity (relative to DMSO controls)
# T12 construct: purchased Reaction Biology Corporation
# [14] = target: T13, PBK/TOPK (Homo sapiens, UniProt Q96KB5); assay: HotSpot kinase assay; format: biochemical; conditions: read-out: % Enzyme Activity (relative to DMSO controls)
# T13 construct: purchased Reaction Biology Corporation
# [15] = target: T14, PKCIOTA (Homo sapiens, UniProt P41743); assay: HotSpot kinase assay; format: biochemical; conditions: read-out: % Enzyme Activity (relative to DMSO controls)
# T14 construct: purchased Reaction Biology Corporation
# [16] = target: T15, PKCb1 (Homo sapiens, UniProt P05771); assay: biochemical; conditions: read-out: % Enzyme Activity (relative to DMSO controls)
# T15 construct: purchased Reaction Biology Corporation
# [17] = target: T16, FER (Homo sapiens, UniProt P16591); assay: HotSpot kinase assay; format: biochemical; conditions: read-out: % Enzyme Activity (relative to DMSO controls)
# T16 construct: purchased Reaction Biology Corporation
# [18] = target: T17, CLK1 (Homo sapiens, UniProt P49759); assay: HotSpot kinase assay; format: biochemical; conditions: read-out: % Enzyme Activity (relative to DMSO controls)
# T17 construct: purchased Reaction Biology Corporation
# [19] = target: T18, RET (Homo sapiens, UniProt P07949); assay: HotSpot kinase assay; format: biochemical; conditions: read-out: % Enzyme Activity (relative to DMSO controls)
# T18 construct: purchased Reaction Biology Corporation
# T18 sequence (P07949 29-1114): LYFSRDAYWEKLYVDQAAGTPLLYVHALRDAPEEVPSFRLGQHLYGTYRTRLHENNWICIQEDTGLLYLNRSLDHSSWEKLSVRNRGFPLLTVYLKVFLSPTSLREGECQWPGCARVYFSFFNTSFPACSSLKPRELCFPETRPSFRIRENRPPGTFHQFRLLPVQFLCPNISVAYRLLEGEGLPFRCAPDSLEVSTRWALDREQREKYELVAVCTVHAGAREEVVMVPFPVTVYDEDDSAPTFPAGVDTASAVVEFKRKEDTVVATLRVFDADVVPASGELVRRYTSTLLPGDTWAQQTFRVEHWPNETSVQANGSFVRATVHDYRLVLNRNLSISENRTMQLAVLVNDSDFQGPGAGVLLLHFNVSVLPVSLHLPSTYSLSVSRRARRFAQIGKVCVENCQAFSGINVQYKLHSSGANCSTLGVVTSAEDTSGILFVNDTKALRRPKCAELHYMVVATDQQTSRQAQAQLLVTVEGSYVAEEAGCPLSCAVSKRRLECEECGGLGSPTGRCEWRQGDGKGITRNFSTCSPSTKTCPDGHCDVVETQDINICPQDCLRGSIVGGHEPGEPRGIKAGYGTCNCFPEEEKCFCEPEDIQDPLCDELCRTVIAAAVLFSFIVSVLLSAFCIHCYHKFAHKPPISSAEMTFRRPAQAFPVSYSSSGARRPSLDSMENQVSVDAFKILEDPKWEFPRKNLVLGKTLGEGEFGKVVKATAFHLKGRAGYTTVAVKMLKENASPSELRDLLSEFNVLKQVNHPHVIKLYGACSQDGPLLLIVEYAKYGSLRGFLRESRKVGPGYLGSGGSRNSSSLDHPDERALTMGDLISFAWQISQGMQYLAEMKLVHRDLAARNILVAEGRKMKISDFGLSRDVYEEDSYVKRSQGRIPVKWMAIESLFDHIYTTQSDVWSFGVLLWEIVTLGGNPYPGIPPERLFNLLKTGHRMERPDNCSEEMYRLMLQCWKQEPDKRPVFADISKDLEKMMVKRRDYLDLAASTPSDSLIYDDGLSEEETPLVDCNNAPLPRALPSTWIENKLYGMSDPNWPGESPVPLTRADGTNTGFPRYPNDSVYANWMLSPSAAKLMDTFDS
# [20] = target: T19, CDK9/cyclin T1 (Homo sapiens, UniProt P50750); assay: HotSpot kinase assay; format: biochemical; conditions: read-out: % Enzyme Activity (relative to DMSO controls)
# T19 construct: purchased Reaction Biology Corporation
# T19 sequence (P50750 whole entry): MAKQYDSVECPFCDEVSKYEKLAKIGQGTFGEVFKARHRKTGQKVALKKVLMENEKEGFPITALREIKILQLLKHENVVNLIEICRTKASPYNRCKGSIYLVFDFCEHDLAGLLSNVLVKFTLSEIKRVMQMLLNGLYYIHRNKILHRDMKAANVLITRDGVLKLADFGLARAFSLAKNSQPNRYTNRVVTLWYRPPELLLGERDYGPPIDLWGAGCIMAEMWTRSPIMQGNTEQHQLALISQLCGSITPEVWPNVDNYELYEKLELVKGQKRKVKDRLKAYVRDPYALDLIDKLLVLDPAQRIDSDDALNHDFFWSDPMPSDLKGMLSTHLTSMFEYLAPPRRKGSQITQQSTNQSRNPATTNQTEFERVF
# T19 sequence (O60563 whole entry partner): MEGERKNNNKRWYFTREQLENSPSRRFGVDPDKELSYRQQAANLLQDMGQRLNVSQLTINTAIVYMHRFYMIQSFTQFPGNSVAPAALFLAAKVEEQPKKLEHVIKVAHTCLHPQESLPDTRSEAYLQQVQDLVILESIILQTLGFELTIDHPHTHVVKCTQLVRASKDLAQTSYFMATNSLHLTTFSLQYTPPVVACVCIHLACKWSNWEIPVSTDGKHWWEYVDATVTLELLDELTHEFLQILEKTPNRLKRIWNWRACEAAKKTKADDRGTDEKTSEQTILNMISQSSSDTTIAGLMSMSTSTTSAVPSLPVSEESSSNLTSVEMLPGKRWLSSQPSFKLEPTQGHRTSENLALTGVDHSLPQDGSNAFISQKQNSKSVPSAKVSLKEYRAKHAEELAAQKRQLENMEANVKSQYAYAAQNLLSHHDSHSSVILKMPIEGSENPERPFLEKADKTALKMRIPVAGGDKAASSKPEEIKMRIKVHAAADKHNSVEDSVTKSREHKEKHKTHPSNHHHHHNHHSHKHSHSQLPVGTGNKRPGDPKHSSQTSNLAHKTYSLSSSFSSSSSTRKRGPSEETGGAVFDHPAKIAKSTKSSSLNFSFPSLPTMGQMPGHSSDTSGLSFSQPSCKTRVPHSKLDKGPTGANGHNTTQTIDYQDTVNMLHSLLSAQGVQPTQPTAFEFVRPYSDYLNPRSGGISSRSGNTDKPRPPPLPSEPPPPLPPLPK
# [21] = target: T20, LYN (Homo sapiens, UniProt P07948); assay: HotSpot kinase assay; format: biochemical; conditions: read-out: % Enzyme Activity (relative to DMSO controls)
# T20 construct: purchased Reaction Biology Corporation
# [22] = target: T21, HIPK3 (Homo sapiens, UniProt Q9H422); assay: HotSpot kinase assay; format: biochemical; conditions: read-out: % Enzyme Activity (relative to DMSO controls)
# T21 construct: purchased Reaction Biology Corporation
# [23] = target: T22, TLK1 (Homo sapiens, UniProt Q9UKI8); assay: HotSpot kinase assay; format: biochemical; conditions: read-out: % Enzyme Activity (relative to DMSO controls)
# T22 construct: purchased Reaction Biology Corporation
# [24] = target: T23, HIPK4 (Homo sapiens, UniProt Q8NE63); assay: HotSpot kinase assay; format: biochemical; conditions: read-out: % Enzyme Activity (relative to DMSO controls)
# T23 construct: purchased Reaction Biology Corporation
# [25] = target: T24, EPHA2 (Homo sapiens, UniProt P29317); assay: HotSpot kinase assay; format: biochemical; conditions: read-out: % Enzyme Activity (relative to DMSO controls)
# T24 construct: purchased Reaction Biology Corporation
# [26] = target: T25, DYRK1B (Homo sapiens, UniProt Q9Y463); assay: HotSpot kinase assay; format: biochemical; conditions: read-out: % Enzyme Activity (relative to DMSO controls)
# T25 construct: purchased Reaction Biology Corporation
# [27] = target: T26, IKKa/CHUK (Homo sapiens, UniProt O15111); assay: HotSpot kinase assay; format: biochemical; conditions: read-out: % Enzyme Activity (relative to DMSO controls)
# T26 construct: purchased Reaction Biology Corporation
# [28] = target: T27, PDGFRb (Homo sapiens, UniProt P09619); assay: HotSpot kinase assay; format: biochemical; conditions: read-out: % Enzyme Activity (relative to DMSO controls)
# T27 construct: purchased Reaction Biology Corporation
# [29] = target: T28, SYK (Homo sapiens, UniProt P43405); assay: HotSpot kinase assay; format: biochemical; conditions: read-out: % Enzyme Activity (relative to DMSO controls)
# T28 construct: purchased Reaction Biology Corporation
# [30] = target: T29, DAPK1 (Homo sapiens, UniProt P53355); assay: HotSpot kinase assay; format: biochemical; conditions: read-out: % Enzyme Activity (relative to DMSO controls)
# T29 construct: purchased Reaction Biology Corporation
# [31] = target: T30, OSR1/OXSR1 (Homo sapiens, UniProt O95747); assay: HotSpot kinase assay; format: biochemical; conditions: read-out: % Enzyme Activity (relative to DMSO controls)
# T30 construct: purchased Reaction Biology Corporation
# [32] = target: T31, MELK (Homo sapiens, UniProt Q14680); assay: HotSpot kinase assay; format: biochemical; conditions: read-out: % Enzyme Activity (relative to DMSO controls)
# T31 construct: purchased Reaction Biology Corporation
# T31 sequence (Q14680 whole entry): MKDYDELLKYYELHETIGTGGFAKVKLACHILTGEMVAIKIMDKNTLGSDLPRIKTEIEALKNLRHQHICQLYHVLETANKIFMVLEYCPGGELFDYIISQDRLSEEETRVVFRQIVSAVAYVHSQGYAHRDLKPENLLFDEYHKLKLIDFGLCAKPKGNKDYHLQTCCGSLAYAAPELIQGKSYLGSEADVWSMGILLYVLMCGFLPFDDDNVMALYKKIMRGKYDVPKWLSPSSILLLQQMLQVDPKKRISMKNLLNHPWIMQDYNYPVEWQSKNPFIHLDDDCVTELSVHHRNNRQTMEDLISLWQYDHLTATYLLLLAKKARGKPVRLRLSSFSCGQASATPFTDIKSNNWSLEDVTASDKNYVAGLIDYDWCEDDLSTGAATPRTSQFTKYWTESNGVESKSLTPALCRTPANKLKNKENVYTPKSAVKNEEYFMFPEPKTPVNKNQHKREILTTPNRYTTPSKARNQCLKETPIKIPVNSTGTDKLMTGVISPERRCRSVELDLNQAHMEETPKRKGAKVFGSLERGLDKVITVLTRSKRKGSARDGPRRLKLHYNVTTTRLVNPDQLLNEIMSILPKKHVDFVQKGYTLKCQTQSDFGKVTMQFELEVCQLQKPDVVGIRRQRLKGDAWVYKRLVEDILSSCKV
# [33] = target: T32, MYO3A (Homo sapiens, UniProt Q8NEV4); assay: HotSpot kinase assay; format: biochemical; conditions: read-out: % Enzyme Activity (relative to DMSO controls)
# T32 construct: purchased Reaction Biology Corporation
# [34] = target: T33, MEKK6 (Homo sapiens, UniProt O95382); assay: HotSpot kinase assay; format: biochemical; conditions: read-out: % Enzyme Activity (relative to DMSO controls)
# T33 construct: purchased Reaction Biology Corporation
# [35] = target: T34, MEK5 (Homo sapiens, UniProt Q13163); assay: HotSpot kinase assay; format: biochemical; conditions: read-out: % Enzyme Activity (relative to DMSO controls)
# T34 construct: purchased Reaction Biology Corporation
# [36] = target: T35, TLK2 (Homo sapiens, UniProt Q86UE8); assay: HotSpot kinase assay; format: biochemical; conditions: read-out: % Enzyme Activity (relative to DMSO controls)
# T35 construct: purchased Reaction Biology Corporation
# T35 sequence (Q86UE8 whole entry): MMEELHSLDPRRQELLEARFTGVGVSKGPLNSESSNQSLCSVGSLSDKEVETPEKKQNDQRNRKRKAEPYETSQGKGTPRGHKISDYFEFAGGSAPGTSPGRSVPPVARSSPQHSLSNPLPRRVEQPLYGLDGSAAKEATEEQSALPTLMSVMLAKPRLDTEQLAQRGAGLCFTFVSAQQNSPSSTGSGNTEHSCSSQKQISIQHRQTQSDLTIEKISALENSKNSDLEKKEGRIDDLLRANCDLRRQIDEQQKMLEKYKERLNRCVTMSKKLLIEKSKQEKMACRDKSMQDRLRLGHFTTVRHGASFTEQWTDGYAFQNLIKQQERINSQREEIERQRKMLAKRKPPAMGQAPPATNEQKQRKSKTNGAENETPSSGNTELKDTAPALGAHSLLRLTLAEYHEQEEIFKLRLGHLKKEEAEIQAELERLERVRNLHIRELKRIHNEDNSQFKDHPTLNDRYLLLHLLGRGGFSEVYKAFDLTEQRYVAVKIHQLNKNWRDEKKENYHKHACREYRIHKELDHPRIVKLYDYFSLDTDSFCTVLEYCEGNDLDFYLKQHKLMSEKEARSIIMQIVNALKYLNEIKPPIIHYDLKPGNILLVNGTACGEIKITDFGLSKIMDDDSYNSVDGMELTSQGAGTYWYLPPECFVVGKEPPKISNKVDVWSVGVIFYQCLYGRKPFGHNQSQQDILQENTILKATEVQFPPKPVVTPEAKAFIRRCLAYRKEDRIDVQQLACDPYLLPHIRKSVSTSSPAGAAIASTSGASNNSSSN
compound,measurement,setting,value
CO[C@@H]1[C@H](N(C)C(=O)CCC(=O)NCc2cn(CCCS(=O)(=O)O)nn2)C[C@H]2O[C@]1(C)n1c3ccccc3c3c4c(c5c6ccccc6n2c5c31)C(=O)NC4 [CIMSS],remaining activity at 10 µM,[1],6.42%
same,remaining activity at 10 µM,[2],15.5%
same,remaining activity at 10 µM,[3],2.85%
same,remaining activity at 10 µM,[4],2.22%
same,remaining activity at 10 µM,[5],23.6%
same,plaques counted at 48 h,[6]; 1 h post-temperature shift,11 and 17
same,plaques counted at 48 h,[6]; 2 h post-temperature shift,19 and 11
same,viral plaque formation,"[6]; each timepoint 0.5–2 h, p < 0.001",significant reduction
same,remaining activity at 10 µM,[7],59.6%
same,IC50,"[8]; Supplementary Table 1, read-out: IC50 (Molar concentration)",461 nM
same,remaining activity at 10 µM,"[8]; read-out: % Enzyme Activity (relative to DMSO controls), 10µM",23.7%
same,inhibition at 10 µM,[8]; read-out: inhibition of Akt1,> 75%
same,remaining activity at 10 µM,[9],1.86%
same,remaining activity at 10 µM,[10],28.2%
same,remaining activity at 10 µM,[11],38.8%
same,remaining activity at 10 µM,[12],6.48%
same,remaining activity at 10 µM,[13],29.5%
same,remaining activity at 10 µM,[14],69.8%
same,remaining activity at 10 µM,[15],31.5%
same,remaining activity at 10 µM,[16],2.83%
same,remaining activity at 10 µM,[17],0.37%
same,remaining activity at 10 µM,[18],4.05%
same,remaining activity at 10 µM,[19],2.1%
same,remaining activity at 10 µM,[20],13.1%
same,remaining activity at 10 µM,[21],2.5%
same,remaining activity at 10 µM,[22],14.5%
same,remaining activity at 10 µM,[23],26.1%
same,remaining activity at 10 µM,[24],10.7%
same,remaining activity at 10 µM,[25],33.5%
same,remaining activity at 10 µM,[26],0.41%
same,remaining activity at 10 µM,[27],31.6%
same,remaining activity at 10 µM,[28],1.9%
same,remaining activity at 10 µM,[29],0.87%
same,remaining activity at 10 µM,[30],13.6%
same,remaining activity at 10 µM,[31],54.2%
same,remaining activity at 10 µM,[32],1.43%
same,remaining activity at 10 µM,[33],6.46%
same,remaining activity at 10 µM,[34],110%
same,remaining activity at 10 µM,[35],40.4%
same,remaining activity at 10 µM,[36],67%
